# Laboratory results: article PMC11123956, “Nobiletin Stimulates Adrenal Hormones and Modulates the Circadian Clock in Mice” (Nutrients, 2024)
# Experiments:
# Format in all cases: biochemical
# PDE4B1 = molecular target: T1, PDE4B1 (Homo sapiens, UniProt Q07343); experiment: PDE enzyme (kinase) assay, PDE4B1
# T1 construct: purchased Eurofins Panlabs Discovery Services Taiwan, Ltd. (contract assay); host or cells: insect Sf9 cells
# Experimental: (§1) Enzyme assays for various subtypes of PDE (Table 1 and Figure 4) were conducted by Eurofins Panlabs Discovery Services Taiwan, Ltd. (New Taipei City, Taiwan). In the assays, five or six concentrations of nobiletin over five or six orders of magnitude were examined in experiments conducted in duplicate to determine the IC50 (concentration of nobiletin exerting half-maximal inhibition of control-specific activity). IC50 values were determined by nonlinear least squares regression analysis using MathIQTM (ID Business Solutions Ltd., Woking, UK). FAM-cAMP, FAM-cGMP (0.1 μM), and 100 μM [^3H]cGMP + cGMP were used for the substrate in the human recombinant insect Sf9 cells or Bovine retinal rod outer segments depending on the PDE subtype. The spectrofluorometric quantitation of fluorescein-AMP-IMAP, fluorescein-GMP-IMAP, or [^3H] guanosine was used depending on the PDE subtype. A known […] of each PDE was used as the positive control.
# Figure 4 PDE kinase assays and the acute clock gene expression changes by PDE4 inhibitor or ROR α/γ agonist. (A) Inhibitory effect of nobiletin on PDE4A1, 4B1, and 10A2. Various concentrations of nobiletin (1–100 μM) were used for IC50 determination (Table 1). Values represent the mean of two experiments. Positive controls were rolipram for PDE4A1 and 4B1 and papaverine for PDE10A2. […]
# PDE5A = molecular target: T2, PDE5A (Homo sapiens, UniProt O76074); experiment: PDE enzyme  assay, PDE5A
# T2 construct: purchased Eurofins Panlabs Discovery Services Taiwan, Ltd. (contract assay); host or cells: insect Sf9 cells
# Experimental: as §1
# PDE7B = molecular target: T3, PDE7B (Homo sapiens, UniProt Q9NP56); experiment: PDE enzyme  assay, PDE7B
# T3 construct: purchased Eurofins Panlabs Discovery Services Taiwan, Ltd. (contract assay); host or cells: insect Sf9 cells
# T3 sequence (Q9NP56 whole entry): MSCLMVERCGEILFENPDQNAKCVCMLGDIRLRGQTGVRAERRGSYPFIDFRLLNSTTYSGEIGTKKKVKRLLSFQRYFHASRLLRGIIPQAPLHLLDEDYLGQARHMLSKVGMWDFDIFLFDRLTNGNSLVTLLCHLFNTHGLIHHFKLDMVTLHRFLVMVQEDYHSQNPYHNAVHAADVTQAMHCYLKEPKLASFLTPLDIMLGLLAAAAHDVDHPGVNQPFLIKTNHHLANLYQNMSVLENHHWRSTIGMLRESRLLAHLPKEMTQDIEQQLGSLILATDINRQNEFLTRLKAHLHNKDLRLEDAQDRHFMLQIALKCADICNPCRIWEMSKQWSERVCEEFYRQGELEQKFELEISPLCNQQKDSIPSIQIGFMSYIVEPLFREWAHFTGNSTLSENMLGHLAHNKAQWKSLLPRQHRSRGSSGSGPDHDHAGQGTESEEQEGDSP
# Experimental: as §1
# T1 sequence (Q07343 whole entry): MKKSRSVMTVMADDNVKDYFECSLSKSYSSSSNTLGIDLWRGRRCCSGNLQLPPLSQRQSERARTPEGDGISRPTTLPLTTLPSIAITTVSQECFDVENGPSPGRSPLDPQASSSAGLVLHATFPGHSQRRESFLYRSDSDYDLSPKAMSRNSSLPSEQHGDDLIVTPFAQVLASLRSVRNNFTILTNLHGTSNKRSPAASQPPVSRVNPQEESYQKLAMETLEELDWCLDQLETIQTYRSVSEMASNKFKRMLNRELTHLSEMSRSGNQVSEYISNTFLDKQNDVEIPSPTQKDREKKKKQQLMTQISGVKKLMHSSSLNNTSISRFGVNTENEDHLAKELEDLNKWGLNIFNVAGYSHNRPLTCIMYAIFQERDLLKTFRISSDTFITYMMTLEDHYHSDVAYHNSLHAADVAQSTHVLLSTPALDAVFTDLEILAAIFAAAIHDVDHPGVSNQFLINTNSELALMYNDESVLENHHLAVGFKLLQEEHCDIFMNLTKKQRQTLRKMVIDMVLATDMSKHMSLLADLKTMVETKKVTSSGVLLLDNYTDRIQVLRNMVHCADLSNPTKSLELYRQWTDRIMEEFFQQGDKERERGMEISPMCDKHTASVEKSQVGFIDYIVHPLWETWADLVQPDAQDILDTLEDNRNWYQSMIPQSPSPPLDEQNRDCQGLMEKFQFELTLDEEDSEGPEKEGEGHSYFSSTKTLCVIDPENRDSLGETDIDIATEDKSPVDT
smiles,measurement,setting,value
COc1ccc(-c2cc(=O)c3c(OC)c(OC)c(OC)c(OC)c3o2)cc1OC [nobiletin],IC50,"PDE4B1; IC50, PDE4B1, bound stated in the discussion",≤ 6.03 µM
same,IC50,"PDE4B1; IC50 Dose, PDE4B1, duplicate",6.03 µM
same,IC50,PDE5A,14.8 µM
same,IC50,PDE7B,20.4 µM
